Experiments:
CD4+CFSElo cells = assay: T cell receptor V alpha gene sequencing of CD4+CFSElo cells after proliferation to peptide; format: cell-based, human; details: three HLA matched T1D subjects with two non-β57Asp DQ alleles; CD4+CFSElo cells vs baseline
Procedure: Three individuals had TCR α-chain sequencing performed on sorted CD4 T cells before peptide proliferation and then on CD4+CFSElo cells after one week of proliferation. Total RNA was directly extracted from sorted cells using the RNeasy Mini kit (Qiagen) for cells before proliferation and the PicoPure RNA isolation kit (Life Technologies) for those after proliferation. […] To amplify TCR-α and TCR-β chains, a two-step PCR was performed. PCR reactions were generated for α- and β-chains separately using the Universal Primer A Mix supplied from the SMARTer RACE cDNA Amplification Kit along with a primer designed on the constant region of α-[…] NO:22)) and β-chains […] NO:23)), respectively. The first PCR products were further amplified with nested primers ligated with the 454 adaptor sequences containing a multiple identifier sequence: forward primer for both α- and β-chains ([NT] NO:24)), reverse primer for α-chains […] NO:25)-multiple identifier sequence-[…] NO:26), and reverse primer for β-chains […] […] All sequences obtained from 454 sequencing were analyzed by the […]-QUEST algorithm (45) to identify Vgene, Jgene, and junction sequences, followed by additional analysis by in-house software to determine frequencies of Vgene usages by individual TCR sequences. Vgene frequencies determined by mean values from the 12 PCR reactions were analyzed for individual samples. […]

[1] = test system: B:9-23 specific CD4 T cells; details: presented by IAg7; cited from earlier work

## SHLVEALYLVCGEEG [B: 9-23 B22E, B:9-23 mimotope; B22 arginine to glutamic acid]
CD4+CFSElo cells
  TCR V gene usage of alpha chains before and after proliferation: skewing with several V alpha genes and one V delta gene
[1]
  stimulates B:9-23 specific CD4 T cells better than the wild type peptide: about 100 fold
